Test [1] can be described thus: reduced cellular PGC1a acetyl-lysine signal – cell-based, cherry-picked samples, dose response (AID 720514).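 Note: potency may reflect raised or lowered acetylation signal.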 Type of test: functional.
Test [2] is described as follows: non-specific 3'UTR reporter inhibition in Clone20-Shn3RL – cell-based, Renilla luciferase, cherry-picked, counter-screen for Shn3 inhibitor project, dose response (AID 624133). Type of test: functional. Background: The purpose of a counterscreen is to sort out artefacts and off-target activity.
The nature of test [3]: reduction of Shn3 3'UTR-driven luciferase in osteoblasts – cell-based, Clone20 osteoblasts, firefly luciferase, cherry-picked, dose response (AID 624132).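 Note: firefly luciferase luminescence from reporter carrying the Shn3 3'UTR in osteoblasts.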 The format is functional.
The nature of test [4]: Fluorescence-based cell-based high throughput dose response assay for inhibitors of the interaction of nucleotide-binding oligomerization domain containing 2 (NOD2) and the receptor-interacting serine-threonine kinase 2 (RIPK2). The following applies: Homo sapiens. The format is functional.
Test [5] deals with Heat shock protein HSP 90-alpha (Homo sapiens, UniProt P07900). Type of test: functional, organism-based.
A further test deals with HeLa. The test can be described thus: viability loss in HeLa cells – cell-based, ATP luminescence, cherry-pick samples, cytotoxicity control, dose response (AID 687004). The format is functional. The following applies: Homo sapiens.
Test [6] addresses T1, Heat shock factor protein 1 (Mus musculus, UniProt P38532).
T1 sequence (P38532 whole entry): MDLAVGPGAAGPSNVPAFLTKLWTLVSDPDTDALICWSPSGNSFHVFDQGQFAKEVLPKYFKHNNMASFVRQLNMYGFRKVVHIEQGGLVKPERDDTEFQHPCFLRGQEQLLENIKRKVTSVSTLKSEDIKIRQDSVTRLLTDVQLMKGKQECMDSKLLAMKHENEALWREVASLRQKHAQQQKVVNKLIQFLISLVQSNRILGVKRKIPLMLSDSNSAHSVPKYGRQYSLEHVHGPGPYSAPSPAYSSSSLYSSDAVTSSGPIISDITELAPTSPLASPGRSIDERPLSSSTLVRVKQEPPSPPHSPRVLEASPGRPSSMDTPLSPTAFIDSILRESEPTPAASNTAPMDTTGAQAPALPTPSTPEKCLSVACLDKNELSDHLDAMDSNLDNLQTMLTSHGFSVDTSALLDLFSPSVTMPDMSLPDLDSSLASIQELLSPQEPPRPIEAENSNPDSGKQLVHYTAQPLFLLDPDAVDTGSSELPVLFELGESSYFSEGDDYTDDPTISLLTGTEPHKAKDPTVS
The test can be described thus: enhancement of HSF1-driven luciferase signal – cell-based, NIH3T3, luminescence, dose retest, confirmation (AID 435004).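 Note: stress induced by proteasome inhibitor MG132 added 30 min after compound; luciferase reporter driven by HSF1 response element in NIH3T3 cells; actives raise luminescence as potentiators of the MG132 stress response.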 The format is functional.

Test [7] deals with T2, Sentrin-specific protease 8 (Homo sapiens, UniProt Q96LD8).
T2 sequence (Q96LD8 whole entry): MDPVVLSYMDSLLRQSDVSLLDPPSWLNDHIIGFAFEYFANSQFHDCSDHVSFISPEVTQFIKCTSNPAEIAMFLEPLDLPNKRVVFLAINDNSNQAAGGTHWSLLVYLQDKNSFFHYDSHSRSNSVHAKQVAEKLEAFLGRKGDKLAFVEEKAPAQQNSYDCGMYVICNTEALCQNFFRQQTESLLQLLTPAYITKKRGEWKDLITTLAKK
The format is functional.

Test [8] has as its target T3, Sentrin-specific protease 7 (Homo sapiens, UniProt Q9BQF6).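 Note: Luminescence-based dose-response confirmation of ultra-high-throughput screening hits, measuring inhibition of SENP7.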
T3 sequence (Q9BQF6 whole entry): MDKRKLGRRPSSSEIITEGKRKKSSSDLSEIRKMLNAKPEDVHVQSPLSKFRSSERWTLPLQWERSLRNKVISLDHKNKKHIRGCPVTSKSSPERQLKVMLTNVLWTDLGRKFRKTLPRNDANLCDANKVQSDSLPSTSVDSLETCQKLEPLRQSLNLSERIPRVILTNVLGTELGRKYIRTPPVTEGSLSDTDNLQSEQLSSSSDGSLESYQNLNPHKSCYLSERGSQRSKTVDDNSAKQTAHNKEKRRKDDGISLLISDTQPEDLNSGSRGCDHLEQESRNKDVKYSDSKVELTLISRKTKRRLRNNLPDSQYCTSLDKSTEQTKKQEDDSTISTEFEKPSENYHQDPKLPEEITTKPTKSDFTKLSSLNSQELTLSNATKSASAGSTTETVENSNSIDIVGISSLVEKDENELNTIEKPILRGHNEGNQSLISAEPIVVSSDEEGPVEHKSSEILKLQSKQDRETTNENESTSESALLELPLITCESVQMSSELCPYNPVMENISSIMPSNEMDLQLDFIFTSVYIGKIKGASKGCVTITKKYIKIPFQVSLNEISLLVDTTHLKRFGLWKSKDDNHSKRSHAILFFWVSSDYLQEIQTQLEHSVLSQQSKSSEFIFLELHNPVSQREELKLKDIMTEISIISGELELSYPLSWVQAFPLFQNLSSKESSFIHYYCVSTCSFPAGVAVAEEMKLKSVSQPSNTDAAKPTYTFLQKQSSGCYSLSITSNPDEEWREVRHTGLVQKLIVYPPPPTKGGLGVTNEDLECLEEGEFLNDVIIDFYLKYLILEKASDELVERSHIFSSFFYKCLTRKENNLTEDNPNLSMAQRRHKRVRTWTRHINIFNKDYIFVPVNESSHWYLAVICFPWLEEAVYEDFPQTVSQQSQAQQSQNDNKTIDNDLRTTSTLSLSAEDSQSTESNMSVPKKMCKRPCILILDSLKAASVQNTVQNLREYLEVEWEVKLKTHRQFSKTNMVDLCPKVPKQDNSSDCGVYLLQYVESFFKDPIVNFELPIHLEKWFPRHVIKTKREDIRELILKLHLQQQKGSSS
The format is functional.

The target of test [9] is T4, Oxysterols receptor LXR-beta (Homo sapiens, UniProt P55055).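 Note: Cell-based luminescence dose-response assay of agonist activity at LXR, run as a confirmatory counterscreen to a daf-12 agonist screen; HEK293 cells with Gal4-LXR fusion and GAL4-driven luciferase reporter; agonist potency from rising luciferase signal of a Gal4-LXR reporter.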
T4 sequence (P55055 whole entry): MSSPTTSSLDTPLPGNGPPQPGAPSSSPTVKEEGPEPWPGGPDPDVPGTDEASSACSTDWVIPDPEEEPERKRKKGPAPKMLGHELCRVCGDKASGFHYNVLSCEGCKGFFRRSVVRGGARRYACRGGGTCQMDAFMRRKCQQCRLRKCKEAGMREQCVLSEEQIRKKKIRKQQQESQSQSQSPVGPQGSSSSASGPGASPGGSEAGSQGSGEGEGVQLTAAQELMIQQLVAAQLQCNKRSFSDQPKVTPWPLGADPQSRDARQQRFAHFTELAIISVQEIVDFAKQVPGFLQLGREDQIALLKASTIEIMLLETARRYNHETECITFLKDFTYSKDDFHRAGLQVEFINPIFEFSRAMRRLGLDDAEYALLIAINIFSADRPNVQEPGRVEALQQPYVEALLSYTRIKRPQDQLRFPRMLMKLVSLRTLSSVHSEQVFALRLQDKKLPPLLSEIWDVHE
Type of test: functional, cell-based.

In another test the target is T5, Caspase-3 (Homo sapiens, UniProt P42574).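 Note: Dose-response selectivity test against caspase-3 for candidate inhibitors of sentrin-specific proteases (SENPs).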
T5 sequence (P42574 whole entry): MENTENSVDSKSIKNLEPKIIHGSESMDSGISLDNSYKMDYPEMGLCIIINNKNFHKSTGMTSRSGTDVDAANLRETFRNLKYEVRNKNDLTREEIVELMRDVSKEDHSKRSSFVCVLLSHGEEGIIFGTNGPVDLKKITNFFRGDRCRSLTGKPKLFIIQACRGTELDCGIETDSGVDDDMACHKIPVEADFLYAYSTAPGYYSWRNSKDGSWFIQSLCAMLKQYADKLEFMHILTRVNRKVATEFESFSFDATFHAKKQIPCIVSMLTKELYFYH
The format is functional.

The target in test [10] is T6, Sentrin-specific protease 6 (Homo sapiens, UniProt Q9GZR1).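 Note: Luminescence-based dose-response confirmatory assay of SENP6 inhibition, following up an ultra-high-throughput screen.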
T6 sequence (Q9GZR1 whole entry): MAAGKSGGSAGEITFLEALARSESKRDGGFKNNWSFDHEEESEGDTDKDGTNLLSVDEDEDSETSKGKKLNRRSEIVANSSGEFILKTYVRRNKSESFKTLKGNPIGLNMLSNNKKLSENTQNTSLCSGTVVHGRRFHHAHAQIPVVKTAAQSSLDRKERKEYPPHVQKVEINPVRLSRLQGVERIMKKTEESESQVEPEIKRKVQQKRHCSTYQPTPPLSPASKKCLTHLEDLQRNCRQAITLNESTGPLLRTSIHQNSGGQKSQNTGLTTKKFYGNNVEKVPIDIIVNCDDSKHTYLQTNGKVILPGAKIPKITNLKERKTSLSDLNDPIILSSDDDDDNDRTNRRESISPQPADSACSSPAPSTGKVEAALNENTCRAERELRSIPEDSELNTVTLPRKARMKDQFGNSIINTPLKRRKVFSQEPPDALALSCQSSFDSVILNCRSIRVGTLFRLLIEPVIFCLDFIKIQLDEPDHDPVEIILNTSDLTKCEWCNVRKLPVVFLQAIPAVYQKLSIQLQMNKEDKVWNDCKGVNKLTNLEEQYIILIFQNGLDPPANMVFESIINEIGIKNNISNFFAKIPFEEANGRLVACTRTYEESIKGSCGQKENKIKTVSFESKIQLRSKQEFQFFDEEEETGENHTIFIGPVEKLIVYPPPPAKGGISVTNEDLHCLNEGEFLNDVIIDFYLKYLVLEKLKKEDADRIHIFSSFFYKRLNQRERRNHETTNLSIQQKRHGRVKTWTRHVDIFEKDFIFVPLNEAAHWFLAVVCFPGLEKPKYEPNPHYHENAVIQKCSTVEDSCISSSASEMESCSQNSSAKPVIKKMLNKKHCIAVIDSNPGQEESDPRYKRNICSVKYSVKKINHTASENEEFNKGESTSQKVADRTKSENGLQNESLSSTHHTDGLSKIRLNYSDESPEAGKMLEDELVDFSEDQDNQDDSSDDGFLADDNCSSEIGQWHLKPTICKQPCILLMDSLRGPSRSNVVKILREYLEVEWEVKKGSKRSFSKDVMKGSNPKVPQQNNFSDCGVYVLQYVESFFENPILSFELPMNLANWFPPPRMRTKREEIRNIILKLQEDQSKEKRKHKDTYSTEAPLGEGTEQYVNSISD
Type of test: functional.

The target in a further test is Paired box protein Pax-8 (Homo sapiens, UniProt Q06710). Put plainly: PAX8 transcriptional activity inhibition in RMG-I – RMG-I cells, luciferase, cherry-pick, dose response (AID 687027).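 Note: luciferase reporter driven by Pax8 target thyroperoxidase promoter measured by SteadyGlo luminescence.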 The format is functional, cell-based.
Chain of Paired box protein Pax-8 (Q06710 whole entry): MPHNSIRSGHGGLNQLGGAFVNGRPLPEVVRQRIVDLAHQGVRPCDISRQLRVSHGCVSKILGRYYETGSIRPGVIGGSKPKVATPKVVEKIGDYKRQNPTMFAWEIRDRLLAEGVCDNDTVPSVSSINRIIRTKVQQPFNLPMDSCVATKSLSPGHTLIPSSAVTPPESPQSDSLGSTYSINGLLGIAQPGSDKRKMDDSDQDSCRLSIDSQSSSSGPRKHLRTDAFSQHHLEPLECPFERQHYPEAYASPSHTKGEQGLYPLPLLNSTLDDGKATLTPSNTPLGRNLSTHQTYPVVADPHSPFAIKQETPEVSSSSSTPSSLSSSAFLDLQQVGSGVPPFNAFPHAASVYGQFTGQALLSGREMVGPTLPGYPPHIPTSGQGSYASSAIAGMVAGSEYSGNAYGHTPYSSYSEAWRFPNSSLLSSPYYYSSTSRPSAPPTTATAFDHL
Test [11] is described as follows: growth inhibition of yeast DHODH-expressing 3D7 parasites – SYBR Green, dry powder samples, dose response (AID 1159570).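 Note: parasite growth measured after 72 hours of compound exposure.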 Type of test: functional, cell-based.
Test [12] can be described thus: blockers of HIV-1 envelope-mediated cell-cell fusion – cherry-pick, dose response (AID 652057). Type of test: functional, cell-based.
A short description of test [13]: Dd2 malaria parasite growth inhibition potency – SYBR Green, dry powder samples, dose response (AID 1159566).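 Note: potency for growth inhibition with lower SYBR green DNA signal.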 Type of test: functional, cell-based.
Test [14] is described as follows: HIV-1 AD8 envelope cell-cell fusion blockers – cherry-pick, dose response (AID 652062).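 Note: luciferase signal from cell-cell fusion driven by HIV-1 clade B AD8 Env; potency is for inhibitors of fusion seen as a drop in luminescence.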 The format is functional, cell-based.
A short description of test [15]: growth inhibition of PfATP4-mutant resistant parasites – NITD609-resistant line, SYBR Green, dry powder, dose response (AID 1159571).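 Note: parasites synchronized at ring stage by sorbitol before testing.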 The format is functional, cell-based.
A short description of test [16]: blockers of HIV-1 ZM109 envelope-driven cell-cell fusion – HeLa effector, CEM target cells, luciferase, cherry-pick, dose response (AID 652058).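 Note: luciferase signal from HIV-1 Env mediated cell-cell fusion of effector and target cells.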 The format is functional, cell-based.
Test [17] in a line: P. falciparum Dd2 growth inhibitors, dose response, SYBR Green, cherry-picked samples (AID 1159567). The format is functional, cell-based.
A further test deals with Transthyretin (Homo sapiens, UniProt P02766). Put plainly: Luminescence-based cell-based high throughput dose response assay to identify activators of Transthyretin (TTR) transcription. Type of test: functional.

As usually defined, the AC50 is the concentration giving half of the maximal activity seen. Usually IC50 stands for the midpoint of a concentration-inhibition curve. The term EC50 denotes the concentration needed to bring the measured effect to its halfway point.

SMILES strings stand for the structures. Calls of active or inactive are those of the source. A value given as a limit tells only on which side of the number the result lay.

As to `CC(=O)OC1(C)CC(C)C(=O)C(C(O)CC2CC(=O)NC(=O)C2)C1` (stereo not drawn), the AC50 was < 0.16 µM (active) in [1]; < 0.26 µM (active) in test [2]; < 0.26 µM (active) in test [3]; < 0.195 µM (active) in test [5]; 14.5 µM (active) with HeLa. Further, the IC50 in test [4] is 49.8 µM (inactive).

Take `c1ccc(N2CC3CCc4ccccc4C3=N2)cc1` (stereo not drawn): the EC50 in test [6] is 114 µM (active); in “cells”, > 67.5 µM (inactive); in test [9] it was > 67.5 µM (inactive). In addition, the IC50 is 58.4 µM (active) in test [7], 5.67 µM (active) in test [8], 23.3 µM (active) on Caspase-3 and 30.4 µM (active) in test [10].

With `Cc1ccc(S(=O)(=O)N(C)C[C@@H]2Oc3cc(C#Cc4ccncc4)ccc3S(=O)(=O)N([C@@H](C)CO)C[C@H]2C)cc1`, the values for the AC50 (in [1]; on Paired box protein Pax-8) were 2.39 µM (active) and 2.51 µM (active), respectively.

With `COc1ccc(S(=O)(=O)Nc2ccc3c(c2)CC(=O)N([C@@H](C)CO)C[C@H](C)[C@H](CN(C)S(=O)(=O)c2ccc(C)cc2)O3)cc1`, the AC50 was 0.928 µM (active) in test [11]; 3.56 µM (active) in test [12]; 0.563 µM (active) in test [13]; 33.9 µM (active) in [14]; 0.553 µM (active) in test [15]; 23.8 µM (active) in test [16]. In addition, in test [17], the concentration at half-maximal activity (AC50) is 1.7 µM (active).

As for `CN(Cc1ccccc1)C(=O)c1[nH]cnc1C(=O)NCC(=O)OC(C)(C)C`, the EC50 on Transthyretin was > 167 µM (inactive).
